IC50 data for 32 compounds are collected here from patent publication US12239643B2, “Therapeutic agent for inflammatory diseases, autoimmune diseases, fibrotic diseases, and cancer diseases” (MEIJI SEIKA PHARMA CO., LTD., priority 2018, dated 2025).

In this assay the test system is PDE4. Kind of assay: Evaluation of PDE4 inhibitory activity, scintillation proximity assay. Type of assay: biochemical. The following applies: scintillation proximity assay. The method in brief: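 SPA with [2,8-3H]-cAMP and diluted PDE4 enzyme preparation in 50 mM Tris-HCl pH 7.4, 8.3 mM MgCl2, 1.7 mM EGTA, 3 mg/mL BSA, 120 min at room temperature. Product captured on ZnSO4-containing YSi-SPA beads, scintillation counted; IC50 from inhibition curves vs DMSO control and no-enzyme blank.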

Setting [1] is: class symbols of Evaluation 1, read-out: PDE4 Inhibitory Activity (concentration for the inhibition rate of 50%, IC50), Evaluation 1.
Setting [2] is: read-out: PDE4 Inhibitory Activity (Evaluation 1; concentration for the inhibition rate of 50%).

Read-outs that look alike come from different tables or passages of the source.

For the compound `CN(C)Cc1cc(-c2nccs2)c2oc(N3CC4CCC(C3)N4)nc2c1` [Example 169, 1-(2-(3,8-Diazabicyclo[3.2.1]octan-3-yl)-7-(thiazol-2-yl)benzo[d]oxazol-5-yl)-N,N-dimethylmethanamine], the IC50 under setting [1] is under 100 nM.

Take `OCc1cc(-c2nccs2)c2oc(N3CC4CCC(C3)N4)nc2c1C(F)(F)F` [Example 170, (2-(3,8-Diazabicyclo[3.2.1]octan-3-yl)-7-(thiazol-2-yl)-4-(trifluoromethyl)benzo[d]oxazol-5-yl)methanol]: under setting [1], the IC50 is under 100 nM. Same read-out and setting: as for `COC(C)(C)c1cc(-c2nccs2)c2oc(N3CC4CCC(C3)N4)nc2c1C(F)(F)F` [Example 171, 2-(3,8-Diazabicyclo[3.2.1]octan-3-yl)-5-(2-methoxypropan-2-yl)-7-(thiazol-2-yl)-4-(trifluoromethyl)benzo[d]oxazole], the figure is under 100 nM; as for `CC(C)(O)c1cc(-c2nccs2)c2oc(N3CC4CCC(C3)N4)nc2c1` [Example 172, 2-(2-(3,8-Diazabicyclo[3.2.1]octan-3-yl)-7-(thiazol-2-yl)benzo[d]oxazol-5-yl)propan-2-ol], under 100 nM; as for `CC(C)(O)c1cc(-c2nccs2)c2oc(N3CC4CC(C3)N4)nc2c1` [Example 173, 2-(2-(3,6-Diazabicyclo[3.1.1]heptan-3-yl)-7-(thiazol-2-yl)benzo[d]oxazol-5-yl)propan-2-ol], under 100 nM.

`COC(C)(C)c1cc(-c2nccs2)c2oc(N3CC4CC(C3)N4)nc2c1` [Example 174, 2-(3,6-Diazabicyclo[3.1.1]heptan-3-yl)-5-(2-methoxypropan-2-yl)-7-(thiazol-2-yl)benzo[d]oxazole]: under setting [1], the IC50 was under 100 nM. Still for that read-out and setting: as for `COC(C)(C)c1cc(-c2nccs2)c2oc(N3CC4CCC(C3)N4)nc2c1` [Example 175, 2-(3,8-Diazabicyclo[3.2.1]octan-3-yl)-5-(2-methoxypropan-2-yl)-7-(thiazol-2-yl)benzo[d]oxazole], the figure is under 100 nM; as for `CC(C)(O)c1cc(-c2nccs2)c2oc(N3CC4CC(C3)N4)nc2c1C(F)(F)F` [Example 178, 2-(2-(3,6-Diazabicyclo[3.1.1]heptan-3-yl)-7-(thiazol-2-yl)-4-(trifluoromethyl)benzo[d]oxazol-5-yl)propan-2-ol], under 100 nM; as for `CC(=O)c1cc(-c2nccs2)c2oc(N3CC4CCC(C3)N4)nc2c1C(F)(F)F` [Example 179, 1-(2-(3,8-Diazabicyclo[3.2.1]octan-3-yl)-7-(thiazol-2-yl)-4-(trifluoromethyl)benzo[d]oxazol-5-yl)ethan-1-one], under 100 nM. Consider `CC(=O)c1cc(-c2nccs2)c2oc(N3CC4CC(C3)N4)nc2c1C(F)(F)F` [Example 180, 1-(2-(3,6-Diazabicyclo[3.1.1]heptan-3-yl)-7-(thiazol-2-yl)-4-(trifluoromethyl)benzo[d]oxazol-5-yl)ethan-1-one], for which, under setting [1], the IC50 is under 100 nM. As for `CC(O)c1cc(-c2nccs2)c2oc(N3CC4CCC(C3)N4)nc2c1C(F)(F)F` (centres unmarked) [Example 181, 1-(2-(3,8-Diazabicyclo[3.2.1]octan-3-yl)-7-(thiazol-2-yl)-4-(trifluoromethyl)benzo[d]oxazol-5-yl)ethan-1-ol], the IC50 under setting [2] is under 100 nM. On the same count and under the same terms, the value for `CC(O)c1cc(-c2nccs2)c2oc(N3CC4CC(C3)N4)nc2c1C(F)(F)F` (centres unmarked) [Example 182, 1-(2-(3,6-Diazabicyclo[3.1.1]heptan-3-yl)-7-(thiazol-2-yl)-4-(trifluoromethyl)benzo[d]oxazol-5-yl)ethan-1-ol] was under 100 nM; that for `OC(c1cc(-c2nccs2)c2oc(N3CC4CCC(C3)N4)nc2c1C(F)(F)F)C(F)F` (centres unmarked) [Example 183, 1-(2-(3,8-Diazabicyclo[3.2.1]octan-3-yl)-7-(thiazol-2-yl)-4-(trifluoromethyl)benzo[d]oxazol-5-yl)-2,2-difluoroethan-1-ol] was under 100 nM; that for `COC(C)c1cc(-c2nccs2)c2oc(N3CC4CCC(C3)N4)nc2c1C(F)(F)F` (centres unmarked) [Example 184, 2-(3,8-Diazabicyclo[3.2.1]octan-3-yl)-5-(1-methoxyethyl)-7-(thiazol-2-yl)-4-(trifluoromethyl)benzo[d]oxazole] was under 100 nM. Turning to `COC(C)c1cc(-c2nccs2)c2oc(N3CC4CC(C3)N4)nc2c1C(F)(F)F` (centres unmarked) [Example 185, 2-(3,6-Diazabicyclo[3.1.1]heptan-3-yl)-5-(1-methoxyethyl)-7-(thiazol-2-yl)-4-(trifluoromethyl)benzo[d]oxazole], the IC50 under setting [2] is under 100 nM.

Consider `CCOC(=O)c1cc(-c2nccs2)c2oc(N3CC4CCC(C3)N4)nc2c1OC(F)(F)F` [Example 186, Ethyl 2-(3,8-diazabicyclo[3.2.1]octan-3-yl)-7-(thiazol-2-yl)-4-(trifluoromethoxy)benzo[d]oxazole-5-carboxylate], for which the IC50 under setting [2] is under 100 nM. In the case of `CCOC(=O)c1cc(-c2nccs2)c2oc(N3CC4CC(C3)N4)nc2c1OC(F)(F)F` [Example 187, Ethyl 2-(3,6-diazabicyclo[3.1.1]heptan-3-yl)-7-(thiazol-2-yl)-4-(trifluoromethoxy)benzo[d]oxazole-5-carboxylate], the IC50 under setting [2] was under 100 nM. Take `CCOC(=O)c1cc(-c2nccs2)c2oc(N3CC4CCCC(C3)N4)nc2c1OC(F)(F)F` [Example 188, Ethyl 2-(3,9-diazabicyclo[3.3.1]nonan-3-yl)-7-(thiazol-2-yl)-4-(trifluoromethoxy)benzo[d]oxazole-5-carboxylate]: the IC50 under setting [2] is under 100 nM. For `O=C(O)c1cc(-c2nccs2)c2oc(N3CC4CCC(C3)N4)nc2c1OC(F)(F)F` [Example 189, 2-(3,8-Diazabicyclo[3.2.1]octan-3-yl)-7-(thiazol-2-yl)-4-(trifluoromethoxy)benzo[d]oxazole-5-carboxylic acid], the IC50 under setting [2] fell in the range of 100 to 1000 nM. Same read-out and setting: the value for `O=C(O)c1cc(-c2nccs2)c2oc(N3CC4CC(C3)N4)nc2c1OC(F)(F)F` [Example 190, 2-(3,6-Diazabicyclo[3.1.1]heptan-3-yl)-7-(thiazol-2-yl)-4-(trifluoromethoxy)benzo[d]oxazole-5-carboxylic acid] was over 1000 nM; that for `O=C(O)c1cc(-c2nccs2)c2oc(N3CC4CCCC(C3)N4)nc2c1OC(F)(F)F` [Example 191, 2-(3,9-Diazabicyclo[3.3.1]nonan-3-yl)-7-(thiazol-2-yl)-4-(trifluoromethoxy)benzo[d]oxazole-5-carboxylic acid] was 100 to 1000 nM. For the compound `O=C(c1cc(-c2nccs2)c2oc(N3CC4CCC(C3)N4)nc2c1OC(F)(F)F)N1CCC1` [Example 192, (2-(3,8-Diazabicyclo[3.2.1]octan-3-yl)-7-(thiazol-2-yl)-4-(trifluoromethoxy)benzo[d]oxazol-5-yl)(azetidin-1-yl)methanone], under setting [2], the IC50 was under 100 nM.

Take `CN(CCO)C(=O)c1cc(-c2nccs2)c2oc(N3CC4CCC(C3)N4)nc2c1OC(F)(F)F` [Example 193, 2-(3,8-Diazabicyclo[3.2.1]octan-3-yl)-N-(2-hydroxyethyl)-N-methyl-7-(thiazol-2-yl)-4-(trifluoromethoxy)benzo[d]oxazole-5-carboxamide]: the IC50 under setting [2] is under 100 nM. On the same count and under the same terms, the value for `O=C(c1cc(-c2nccs2)c2oc(N3CC4CCC(C3)N4)nc2c1OC(F)(F)F)N1CC(O)(C(F)(F)F)C1` [Example 194, (2-(3,8-Diazabicyclo[3.2.1]octan-3-yl)-7-(thiazol-2-yl)-4-(trifluoromethoxy)benzo[d]oxazol-5-yl)(3-hydroxy-3-(trifluoromethyl)azetidin-1-yl)methanone] was 100 to 1000 nM; that for `CC(C)(O)c1cc(-c2nccs2)c2oc(N3CC4CC(C3)N4)nc2c1OC(F)(F)F` [Example 196, 2-(2-(3,6-Diazabicyclo[3.1.1]heptan-3-yl)-7-(thiazol-2-yl)-4-(trifluoromethoxy)benzo[d]oxazol-5-yl)propan-2-ol] was under 100 nM. Turning to `CC(C)(O)c1cc(-c2nccs2)c2oc(N3CC4CCCC(C3)N4)nc2c1OC(F)(F)F` [Example 197, 2-(2-(3,9-Diazabicyclo[3.3.1]nonan-3-yl)-7-(thiazol-2-yl)-4-(trifluoromethoxy)benzo[d]oxazol-5-yl)propan-2-ol], the IC50 under setting [2] is under 100 nM.

Consider `COC(C)(C)c1cc(-c2nccs2)c2oc(N3CC4CCCC(C3)N4)nc2c1OC(F)(F)F` [Example 200, 2-(3,9-Diazabicyclo[3.3.1]nonan-3-yl)-5-(2-methoxypropan-2-yl)-7-(thiazol-2-yl)-4-(trifluoromethoxy)benzo[d]oxazole], for which the IC50 under setting [2] was under 100 nM. On the same count and under the same terms, the value for `OCc1cc(-c2nccs2)c2oc(N3CC4CCC(C3)N4)nc2c1OC(F)(F)F` [Example 201, (2-(3,8-Diazabicyclo[3.2.1]octan-3-yl)-7-(thiazol-2-yl)-4-(trifluoromethoxy)benzo[d]oxazol-5-yl)methanol] was under 100 nM; that for `CC(O)c1cc(-c2nccs2)c2oc(N3CC4CCC(C3)N4)nc2c1OC(F)(F)F` (centres unmarked) [Example 202, 1-(2-(3,8-Diazabicyclo[3.2.1]octan-3-yl)-7-(thiazol-2-yl)-4-(trifluoromethoxy)benzo[d]oxazol-5-yl)ethan-1-ol] was under 100 nM.

`CCC(O)c1cc(-c2nccs2)c2oc(N3CC4CCC(C3)N4)nc2c1OC(F)(F)F` (centres unmarked) [Example 204, 1-(2-(3,8-Diazabicyclo[3.2.1]octan-3-yl)-7-(thiazol-2-yl)-4-(trifluoromethoxy)benzo[d]oxazol-5-yl)propan-1-ol]: the IC50 under setting [2] was under 100 nM. Still for that read-out and setting: as for `CC(C)C(O)c1cc(-c2nccs2)c2oc(N3CC4CCC(C3)N4)nc2c1OC(F)(F)F` (centres unmarked) [Example 205, 1-(2-(3,8-Diazabicyclo[3.2.1]octan-3-yl)-7-(thiazol-2-yl)-4-(trifluoromethoxy)benzo[d]oxazol-5-yl)-2-methylpropan-1-ol], the figure is under 100 nM. As to `OC(c1cc(-c2nccs2)c2oc(N3CC4CCC(C3)N4)nc2c1OC(F)(F)F)C(F)F` (centres unmarked) [Example 206, 1-(2-(3,8-Diazabicyclo[3.2.1]octan-3-yl)-7-(thiazol-2-yl)-4-(trifluoromethoxy)benzo[d]oxazol-5-yl)-2,2-difluoroethan-1-ol], the IC50 under setting [2] was under 100 nM.
